Data set [1] addresses Adrenergic Receptor α1A (ADRA1A) (Homo sapiens, UniProt P35348). The experiment in a line: SAFETYscan GPCR Calcium Flux. It counts as cell-based. (In general: Calcium flux is commonly read through the fluorescence of an indicator in the cells.)
In data set [2] the target is T1, Adrenergic Receptor β1 (ADRB1) (Homo sapiens, UniProt P08588).
T1 construct: host or cells: cAMP Hunter cell lines
Nature of the data set: SAFETYscan GPCR cAMP. It counts as cell-based. The settings on record: read-out: RC50 (the source's name).

Data set [3] has as its target T2, Cannabinoid Receptor 2 (CNR2) (Homo sapiens, UniProt P34972).
T2 construct: host or cells: cAMP Hunter cell lines
Nature of the data set: SAFETYscan GPCR cAMP. It counts as cell-based.

Data set [4] concerns the target T3, Opioid Receptor Delta 1 (OPRD1) (Homo sapiens, UniProt P41143).
T3 construct: host or cells: cAMP Hunter cell lines
Nature of the data set: SAFETYscan GPCR cAMP. Type of data set: cell-based.

For data set [5], the target named is T4, Insulin Receptor (tyrosine kinase) (INSR) (Homo sapiens, UniProt P06213).
T4 construct: host or cells: E. coli BL21-derived host (T7 phage) or HEK-293
T4 sequence (P06213 28-1382): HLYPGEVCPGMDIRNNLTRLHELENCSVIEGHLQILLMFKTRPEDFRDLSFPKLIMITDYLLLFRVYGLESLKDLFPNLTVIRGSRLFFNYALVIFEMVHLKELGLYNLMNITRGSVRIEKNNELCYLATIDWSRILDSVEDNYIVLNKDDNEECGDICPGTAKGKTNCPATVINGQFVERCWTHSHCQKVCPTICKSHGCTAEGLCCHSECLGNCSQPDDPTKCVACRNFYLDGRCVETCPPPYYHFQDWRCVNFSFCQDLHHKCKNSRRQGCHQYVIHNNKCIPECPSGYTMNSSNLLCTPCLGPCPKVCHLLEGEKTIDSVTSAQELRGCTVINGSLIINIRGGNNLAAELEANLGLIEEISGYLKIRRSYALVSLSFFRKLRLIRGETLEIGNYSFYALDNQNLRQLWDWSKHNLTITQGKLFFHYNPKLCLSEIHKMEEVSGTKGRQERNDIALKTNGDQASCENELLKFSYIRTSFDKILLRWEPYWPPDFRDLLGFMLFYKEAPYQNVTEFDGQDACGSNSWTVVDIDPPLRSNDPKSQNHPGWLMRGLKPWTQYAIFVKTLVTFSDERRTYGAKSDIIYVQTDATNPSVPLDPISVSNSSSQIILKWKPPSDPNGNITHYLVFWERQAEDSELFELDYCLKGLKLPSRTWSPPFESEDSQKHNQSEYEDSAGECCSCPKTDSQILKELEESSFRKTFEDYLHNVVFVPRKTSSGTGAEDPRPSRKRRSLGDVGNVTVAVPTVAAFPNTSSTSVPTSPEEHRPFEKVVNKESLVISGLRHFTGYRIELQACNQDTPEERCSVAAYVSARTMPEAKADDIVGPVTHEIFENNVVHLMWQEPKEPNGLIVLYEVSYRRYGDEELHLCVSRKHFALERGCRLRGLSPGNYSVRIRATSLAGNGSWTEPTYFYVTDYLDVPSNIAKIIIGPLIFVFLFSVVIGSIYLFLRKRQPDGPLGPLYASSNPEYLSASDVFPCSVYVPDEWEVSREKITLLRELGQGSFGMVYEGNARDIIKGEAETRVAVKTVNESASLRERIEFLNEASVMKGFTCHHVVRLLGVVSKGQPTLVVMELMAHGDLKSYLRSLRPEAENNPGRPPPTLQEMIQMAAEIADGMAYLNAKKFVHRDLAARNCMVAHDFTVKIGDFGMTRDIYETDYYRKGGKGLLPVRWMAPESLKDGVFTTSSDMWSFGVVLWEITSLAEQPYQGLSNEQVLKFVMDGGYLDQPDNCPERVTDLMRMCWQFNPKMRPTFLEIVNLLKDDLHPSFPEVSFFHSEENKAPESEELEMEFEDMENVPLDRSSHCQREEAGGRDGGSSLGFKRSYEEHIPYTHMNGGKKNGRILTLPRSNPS
The experiment in a line: SAFETYscan KINOMEscan binding assay. The settings on record: Inhibitor.

Data set [6] addresses T5, Vascular endothelial growth factor receptor 2 (KDR tyrosine kinase) (VEGFR2) (Homo sapiens, UniProt P35968).
T5 construct: host or cells: E. coli BL21-derived host (T7 phage) or HEK-293
The experiment in a line: SAFETYscan KINOMEscan binding assay. The settings on record: Inhibitor.

Data set [7] has as its target Nuclear Hormone Glucocorticoid Receptor (GR) (Homo sapiens, UniProt P04150). Nature of the data set: SAFETYscan Nuclear Hormone Receptor assay. The settings on record: read-out: RC50 (the source's name). It counts as cell-based.
Data set [8] is described as follows: Single-dose acute tolerance, intravenous. It counts as in vivo, Male C57BL/6 mice. The settings on record: 250 mg/kg intravenously. As to the method:
This pilot study was conducted according to guidance for industry single dose acute toxicity testing for pharmaceuticals (https://www.fda.gov/regulatory-information/search-fda-guidance-documents/single-dose-acute-toxicity-testing-pharmaceuticals) to obtain acute information on the dose toxicity of HU-MCA-13 in male mice. Male C57BL/6 mice were injected intravenously with 0.2 mL of HU-MCA-13 in a dose of 250 mg/kg. […] The mortality and changes on body weight, clinical signs and gross observation, were monitored up to 30 days after treatment.
Sensory motor/neurological performance
The performance was weekly measured using several routine motor tests, but no neurological losses w ere observed (Table 1). Sensory motor tests were scored individually and according to the neurologic function severity score (NSS). The data from each individual test and the total score calculated from individual tests that make up the mNSS were measured. The following tests were […]
a. Beam balance test -mice were placed on a 2.5 cm wide beam for 60 seconds. A normal response is balance with steady posture for 60 seconds (a score of 0). Deficits are scored if the rat:
1. Grasps the side of the beam (score of 1); 2. Hugs the beam and one limb falls down from the beam (score of 2); 3. Hugs the beam and two limbs fall off the beam (score of 3); 4. Try to balance on the beam, but falls off from 60 seconds (score of 4); 5. Try to balance on the beam but falls off from 60 seconds (score of 5); 6. Falls off with no attempt to balance or hang on the beam in les s than 20 seconds (score of 6). b. Foot fault test- dysfunction of forelimb movement, while walking on elevated metal grids.
The animal was placed on horizontal grids (85 ×26 ×20) cm with a glass enclosure for observation.
With each weight bearing step, the forelimb can fall or slip between the metal support bars, an event recorded as a foot fault. The total number of forelimb steps and the total number of foot faults were counted. The percentage of forelimb foot faults to the total steps that occurred within 2 minutes represent the test results. c. Hind limb placing test- This assay monitors reposition of hind limbs placed down and away from the table edge. The ability to retrieve and place the hind limbs back onto the table was measured. Immediate and complete limb retrieval was scored 0, delayed (>2 seconds) limb retrieval and/or interspersed flailing was scored 1, and no limb retrieval was scored 2; d. Increasing platform angle to slide test- This assay measures the strength and stability of resistance to slide down an inclined platform. It deploys a clean wooden board (60 X 40 cm) positioned horizontally. Mice were placed on the board with head facing up the increasing incline.
The board then swings to increase the degree of inclination the rat experiences until slipping down the board feet first. The degree of the angle at which the rat relinquishes their grip/stance on the board (slips down) represents the test results; […]
e. Forelimb whole body suspension test- This assay measure s grip strength by duration of suspen sion by forepaws. The rat is suspended o n a metal bar (diameter of 5 mm) which it tightly holds onto by its forelimbs. The time (seconds) during which each rat could sustain its body weight while holding onto the bar is measured. The mice drop from the bar onto soft material with no harm. The test was repeated three times and a mean result per rat was used as the score. […]

In the next data set the test system is neurons. The experiment in a line: Cytotoxicity to neurons. Type of data set: cell-based. The settings on record: 10 μM. An excerpt:
“Off-target” activity refers to all other targets for which a molecule has affinity with the outcome of activation, blockade, or modulation, resulting in a functional effect. In many cases, the off-target activity of the molecule can be sub-clinical and not pose a concern. On the other hand, the off-target activity may result in side effects of the active agent that range from a minor nuisance to a severe adverse event, resulting with drug withdrawal.[33] Therefore, in vitro pharmacological profiling is increasingly being used earlier in the drug discovery process to identify undesirable off-target activity profiles that could hinder or halt the development of a candidate drug.[34] With this background, assessing the specificity of HU-MCA-13 early in its development using highly relevant and predictive functional assays, which allow more informed decisions about its safety, ultimately lead to the development of an effective neurotropic drug. […] Cell death was evaluated by morphological appearance of the cells and release of LDH into the medium, in the absence and presence of different concentrations of synthetic compounds as previously described.[52]

The target of data set [9] is Voltage-gated L-type calcium channel (CAV1.2) (Homo sapiens, UniProt Q13936). Nature of the data set: cell-based.
Data set [10] has as its system PGE2 production in PC12 cells. Nature of the data set: PGE2 production measured by ELISA. The settings on record: different concentrations of HU-MCA-13, dose-dependent; 24 h.
Setting [11] is: 10 μM, read-out: MCA-13 Max. Responce.
The mark [12] stands for this setting: read-out: RC50 (the source's name).

Experimental findings from paper PMC7497641, “Neurotropic activity and safety of methylene-cycloalkylacetate (MCA) derivative 3-(3-allyl-2-methylenecyclohexyl) propanoic acid” (ACS Chemical Neuroscience, 2020) are described below.

pEC50, pIC50: −log10 of the molar value. Some results are limits rather than exact numbers.

T2 sequence (P34972 whole entry): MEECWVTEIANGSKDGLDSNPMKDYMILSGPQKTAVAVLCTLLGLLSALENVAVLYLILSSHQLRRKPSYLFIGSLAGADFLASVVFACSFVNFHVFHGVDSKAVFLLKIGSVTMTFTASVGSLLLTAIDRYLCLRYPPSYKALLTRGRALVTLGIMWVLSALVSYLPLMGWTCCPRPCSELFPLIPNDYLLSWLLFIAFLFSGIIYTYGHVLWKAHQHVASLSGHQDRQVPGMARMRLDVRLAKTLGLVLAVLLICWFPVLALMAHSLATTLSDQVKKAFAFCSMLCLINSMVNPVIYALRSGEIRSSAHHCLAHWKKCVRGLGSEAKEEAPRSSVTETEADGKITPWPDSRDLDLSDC
T5 sequence (P35968 20-1356): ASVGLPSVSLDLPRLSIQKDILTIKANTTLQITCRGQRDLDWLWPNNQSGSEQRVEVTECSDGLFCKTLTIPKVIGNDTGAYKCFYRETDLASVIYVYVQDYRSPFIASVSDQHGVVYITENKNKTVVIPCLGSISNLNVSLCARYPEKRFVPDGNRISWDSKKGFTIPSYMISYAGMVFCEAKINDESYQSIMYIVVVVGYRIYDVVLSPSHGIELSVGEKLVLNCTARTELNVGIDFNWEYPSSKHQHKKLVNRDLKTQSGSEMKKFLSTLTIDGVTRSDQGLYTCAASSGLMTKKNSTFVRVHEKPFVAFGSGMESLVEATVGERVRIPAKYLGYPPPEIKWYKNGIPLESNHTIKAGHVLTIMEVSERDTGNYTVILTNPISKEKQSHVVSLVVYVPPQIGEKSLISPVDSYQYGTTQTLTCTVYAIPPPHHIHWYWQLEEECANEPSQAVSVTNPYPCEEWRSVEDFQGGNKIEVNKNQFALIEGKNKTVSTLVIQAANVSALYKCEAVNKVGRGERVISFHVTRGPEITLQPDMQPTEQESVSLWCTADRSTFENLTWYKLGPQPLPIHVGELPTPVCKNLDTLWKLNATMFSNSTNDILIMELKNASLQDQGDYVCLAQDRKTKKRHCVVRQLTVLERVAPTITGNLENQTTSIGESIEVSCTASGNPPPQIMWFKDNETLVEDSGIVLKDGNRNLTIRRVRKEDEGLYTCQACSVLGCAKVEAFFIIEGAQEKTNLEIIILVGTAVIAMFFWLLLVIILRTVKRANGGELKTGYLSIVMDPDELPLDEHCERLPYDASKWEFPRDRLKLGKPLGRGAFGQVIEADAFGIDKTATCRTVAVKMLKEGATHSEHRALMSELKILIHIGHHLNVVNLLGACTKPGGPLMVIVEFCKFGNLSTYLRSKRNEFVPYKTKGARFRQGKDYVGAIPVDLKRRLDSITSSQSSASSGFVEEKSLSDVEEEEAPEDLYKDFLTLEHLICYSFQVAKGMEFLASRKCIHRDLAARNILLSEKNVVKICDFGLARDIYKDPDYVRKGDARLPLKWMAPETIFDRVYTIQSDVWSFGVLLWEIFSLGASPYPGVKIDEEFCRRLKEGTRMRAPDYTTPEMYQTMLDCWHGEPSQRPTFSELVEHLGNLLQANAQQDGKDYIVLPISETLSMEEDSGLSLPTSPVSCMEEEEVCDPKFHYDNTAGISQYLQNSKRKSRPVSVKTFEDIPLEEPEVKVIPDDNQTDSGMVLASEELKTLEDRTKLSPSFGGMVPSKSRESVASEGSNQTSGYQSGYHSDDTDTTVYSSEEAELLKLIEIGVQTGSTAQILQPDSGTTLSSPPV
Chain of Adrenergic Receptor α1A (ADRA1A) (P35348 whole entry): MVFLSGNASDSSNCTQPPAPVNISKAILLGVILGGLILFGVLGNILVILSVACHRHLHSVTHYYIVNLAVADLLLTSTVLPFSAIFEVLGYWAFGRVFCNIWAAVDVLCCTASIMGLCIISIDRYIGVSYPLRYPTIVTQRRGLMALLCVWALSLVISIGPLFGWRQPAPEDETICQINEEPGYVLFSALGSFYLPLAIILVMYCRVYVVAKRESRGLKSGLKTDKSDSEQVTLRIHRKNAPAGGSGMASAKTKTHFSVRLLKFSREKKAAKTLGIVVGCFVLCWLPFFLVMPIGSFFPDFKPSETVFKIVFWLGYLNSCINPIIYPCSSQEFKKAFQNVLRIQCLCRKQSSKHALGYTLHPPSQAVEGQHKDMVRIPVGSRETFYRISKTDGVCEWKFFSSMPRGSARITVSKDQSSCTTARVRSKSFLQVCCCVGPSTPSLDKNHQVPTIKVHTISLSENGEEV
T3 sequence (P41143 whole entry): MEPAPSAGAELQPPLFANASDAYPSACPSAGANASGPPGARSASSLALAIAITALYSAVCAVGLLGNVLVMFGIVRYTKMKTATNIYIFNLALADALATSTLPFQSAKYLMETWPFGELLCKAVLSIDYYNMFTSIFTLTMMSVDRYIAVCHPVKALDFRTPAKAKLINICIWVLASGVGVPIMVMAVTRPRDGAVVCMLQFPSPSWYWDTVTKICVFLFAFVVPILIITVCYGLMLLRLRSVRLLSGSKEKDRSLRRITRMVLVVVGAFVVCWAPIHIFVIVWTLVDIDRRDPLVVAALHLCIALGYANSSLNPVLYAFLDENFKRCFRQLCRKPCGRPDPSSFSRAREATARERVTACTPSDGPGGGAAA
Chain of Nuclear Hormone Glucocorticoid Receptor (GR) (P04150 whole entry): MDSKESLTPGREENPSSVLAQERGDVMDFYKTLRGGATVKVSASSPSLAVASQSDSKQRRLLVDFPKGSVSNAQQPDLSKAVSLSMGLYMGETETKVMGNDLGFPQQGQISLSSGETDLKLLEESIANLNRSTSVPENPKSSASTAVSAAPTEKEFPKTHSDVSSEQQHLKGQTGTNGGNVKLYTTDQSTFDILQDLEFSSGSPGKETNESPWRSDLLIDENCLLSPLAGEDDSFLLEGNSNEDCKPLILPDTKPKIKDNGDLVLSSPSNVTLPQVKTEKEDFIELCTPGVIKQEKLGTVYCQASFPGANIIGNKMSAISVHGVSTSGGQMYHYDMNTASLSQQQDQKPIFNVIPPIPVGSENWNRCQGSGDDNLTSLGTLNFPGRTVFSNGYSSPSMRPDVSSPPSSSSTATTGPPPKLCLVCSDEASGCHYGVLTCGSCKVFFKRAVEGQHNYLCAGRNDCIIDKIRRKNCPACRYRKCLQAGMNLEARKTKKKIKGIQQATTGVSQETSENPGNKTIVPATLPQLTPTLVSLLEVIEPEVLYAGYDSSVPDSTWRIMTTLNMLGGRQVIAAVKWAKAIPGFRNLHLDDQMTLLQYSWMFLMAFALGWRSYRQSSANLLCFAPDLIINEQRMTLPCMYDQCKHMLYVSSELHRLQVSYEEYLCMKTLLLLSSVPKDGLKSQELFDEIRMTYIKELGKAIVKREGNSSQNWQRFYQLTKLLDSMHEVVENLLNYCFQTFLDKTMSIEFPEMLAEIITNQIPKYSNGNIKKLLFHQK

For `C=CCC1CCCC(CCC(=O)O)C1=C` (stereo not shown) [HU-MCA-13, 3-(3-allyl-2-methylenecyclohexyl)propanoic acid], the pEC50 in data set [1], in [2] (Agonist), in data set [3], in data set [4] and in data set [7] (Agonist) was below 5.00 throughout. The pIC50 in data set [1], in [2] (Antagonist), in data set [3], in [4], in data set [5] (setting [12]) and in data set [6] (setting [12]) was below 5.00 throughout. Besides, the pIC50 in data set [7] (Antagonist) and in data set [9] was below 5.00 throughout. Further, the inhibition at 10 µM turned out to be 3.22% in data set [5] (setting [11]) and 21.7% in data set [6] (setting [11]). Also, the “autonomic symptoms (salivation, urinary delivery, pupillary constriction, hair contraction) versus DMSO” value in [8] is given as “no differences were observed”. Also, the mortality entry in [8] (single dose, monitored up to 30 days) was “could not find any mortality”. Moreover, the “sensory-motor performance, neurologic function severity score (NSS)” value in data set [8] (first week after injection) is “no neurological losses were observed”. For the same compound, the “changes on body weight versus 1% DMSO treated group” value in data set [8] (up to 30 days) was “No significant changes”. Further, the “body weight at end” value in data set [8] (up to 30 days, started with 21 g) is given as 27 g. Also, in the data set on neurons, the toxicity to neurons result is reported as “not toxic”. Moreover, the “increase of PGE2 production over control, untreated cultures” value in data set [10] is 3–6 fold.
